# Earlier results in patent US4127528A, “Novel derivatives of alpha-endorphin, intermediates therefor and compositions and methods employing said derivatives” (priority 1977, dated 1978).
# Experiments:
# rat = conditions: injected directly into the brain of the rat
# [1] = test system: brain opiate receptor sites; conditions: natural peptide
substance,measurement,setting,value
H-Tyr-Gly-Gly-Phe-Met-OH [methionine enkephalin],analgesic activity,rat,only weak analgesic activity of short duration
same,binding to partially purified brain opiate receptor sites,[1],binds stereo-specifically
same,activity in bioassays for opiate activity,opiate activity,very active
